“Also recorded” adds a separate entry of the source.
Key:
A375-WT [1] = assay: Pan-Cancer PepTile/PiTile fitness screen (lentiviral 40-mer peptide library, NGS abundance); type: cell-based, human; design: key: enrichment of each peptide's NGS abundance, early day vs Day 14; details: for A375-WT Fitness Score: Pan-Cancer library, peptide enrichment day 14 vs day 0
From the text: FIGS. 13A-13D show Pan-Cancer PiTile Workflow. (A) The Pan-Cancer peptide library is composed of 1081 proteins tiled into 40-mer peptides at every 6 amino acids of the parental protein. The DNA-encoded library is cloned into lentiviral vectors and packaged into lentivirus. (B) A375 cell line was transduced with the Pan-Cancer PiTile library. Genomic DNA was then harvested at Day2 and Day 14 post-transduction and cell populations abundance expressing the different peptides were quantified using Next-Generation Sequencing (NGS). Peptide fitness score was then calculated by the abundance of each peptide at Day2 versus Day 14. Then the fitness signal is mapped over the original amino acid positions of the derived protein. (C) Coverage of the plasmid Pan-Cancer library and peptide-amplicons from Day2 and Day 14 replicated was determined by NGS. (D) Dot plot of the experimental result obtain from screening the Pan-Cancer library in A375 cell line.
(§1) A peptide tilling screen was performed in A375 similarly to a screen done in MDA-MB-231 (FIG. 1) but with a different lentiviral library. The library (Pan-Cancer library) is composed of 1020 genes tiled every 6 amino acids into 40-mer amino acid long peptides. The gene selection was based on their implication in oncogenesis either being as oncogenes or tumor suppressors. The list was built using recent literature that identified new cancer drivers as well as databases such as Uniprot keywords (KW-0656: Proto-oncogene, KW-0043: Tumor suppressor), and Gene Ontology terms (GO1900117: Apoptosis, GO1901979: Cell cycle checkpoint) (FIG. 2). Aside from Human genes, a list of viral genes was also included (KW-1121: Modulation of host cell cycle by virus) that play roles in high jacking cell cycle progression and thus in oncogenesis (FIG. 2).
(§2) The model of study is melanoma, and this disease is stratified into 4 molecular subtypes, BRAF mutants, NRAS mutants, KIT amplification, NF1 mutations (FIG. 3A). The most prominent mutations found in patient affected with metastatic melanomas are BRAF^V600E and NRAS^Q61K (FIG. 3B). RAS play a key role in oncogenesis and resistance to treatments. Indeed, RAS activating mutations is found in ~20% of all human cancers and secondary NRAS mutation leads to acquired resistance to BRAF targeted therapy such as vemurafenib. Thus, the screen was performed in an A375 cell line model which derived from human BRAF^V600E melanoma as well as an engineered A375 transduced with HA-NRAS^Q61K (FIG. 4A, B). Both cell lines grow at a similar rate but the A375-NRAS^Q61K display more than 10-fold resistance to vemurafenib treatment compared to parental A375 (FIG. 4C, D).
(§3) These cells were transduced with the Pan-Cancer library at a low multiplicity of infection (MOI=0.1-0.3). Then, genomic DNA was extracted at day 0 and day 14 post-transduction to quantify the abundance of peptide for each temporal conditions using Next-generation sequencing. Each experimental replicates were deep sequenced with at least 150 million reads and show a coverage between 82-90% of the initial Pan-Cancer Peptide library (FIG. 5). Then, for each individual peptides a cellular fitness score was calculated based on their enrichment between day 0 and day 14. 8090 peptides negatively affecting growth of A375-WT were identified and 8153 peptides for the A375-NRAS^Q61K cell line (FIG. 6). […] Those common hits are found to be tiles from ~100 genes of the Pan-Cancer gene list and show a substantial biological function clustering.
We built a DNA-encoded peptide library composed of all known Human oncogenes and Tumor Suppressors that we fragmented in 40 amino acid long peptides, the Pan-Cancer library. Using lentiviral expression system, we transduced the Pan-Cancer library in A375 cell line. After 14 days of growth, the frequency of each peptide is measured by NGS and this reveal which peptides affect cell fitness. […]

A375-NRAS^Q61K [2] = assay: Pan-Cancer PepTile fitness screen (lentiviral 40-mer peptide library, NGS abundance); type: cell-based, human; details: peptide enrichment day 14 vs day 0
Procedure: as §1, §2, §3

A375-WT [3] = assay: Validation assay: cell growth (CCK8, 48 hours after plating) of cells transduced with single peptide tiles; type: cell-based, human; details: peptide overexpression
Procedure: (§4) FIGS. 9A-9C. (A) Fitness screen validation assay workflow. (B) Validation assay results (C) Fitness screen results.
(§5) FIGS. 14A-14E show PiTiles derived from DNA-binding domains of MYC and SOX17 inhibit transcriptional program. (A) Experimental workflow of A375 cell line individually transduced with lentivirus expressing GFP_147, MYC_384 or SOX17_96. 5 days post-transductions, RNA was harvested for RNA sequencing. Additionally, cells were plated for a 48-hour growth assay. (B) Cell growth of A375 cell line expressing GFP_147 (control), MYC_384 and SOX17_96. […] Red bar=FDR<0.05. We observe a negative peak in bHLHzip domain of MYC as well as HMG box domain of SOX17. Both domains mediated binding to DNA. (D) Principal Component Analysis of RNA-sequencing for both biological replicates of GFP_147, MYC_384 and SOX17_96 expressing cell lines. (E) A375 RNAseq data was analyzed using Gene Set Enrichment Analysis. For MYC_384 versus GFP_147 over ODONNEL_TARGET_OF_MYC_and_TFRC. For SOX17_96 versus GFP_147 over PRANMOOJAGO_SOX4.
(§6) All those selected hits mapped to a known protein domain with known roles in protein-protein interaction or protein-DNA interaction. […] When the fold change of every tile on the protein amino acid positions was mapped, functional regions of the protein affecting cell growth were identified. For example, on RAF1, peaks corresponding to the Ras-binding domain (RBD) were identified, and the kinase domain (FIG. 8A). […] In addition, a region of MYC that affect cell growth was identified and mapped on the DNA binding domain bHLH (FIG. 8). […] To validate the results from the screen, A375-WT and -NRAS^Q61K were transduced with GFP_147, or RAF1_78, MYC_384, or KIT_499, or SOS_120 tiles and cell growth measured using CCK8 assay
(§7) 48 hours after plating (FIG. 9A). […] The CR2 domain of BRAF contain a 14-3-3 binding site and play a role in BRAF-MEK autoinhibitory complex which regulates MAPK pathway activation. One of the goals of this contextual PepTile screen was to identify peptides that would impair growth of NRAS cell line but not the parental, to address overall NRAS-driven drug resistance. For instance, more than 6000 peptide hits were detected that are exclusive to A375-NRAS^Q61K (FIG. 6). For example, ARHGAP20 and ARHGAP26 show a very different PepTile profiles between A375-NRAS^Q61K and A375-WT (FIG. 11) and seem to have more of an effect in the A375-NRAS^Q61K condition. Altogether, the Pan-Cancer PepTile screen show the potential of finding new potential peptides to target NRAS melanoma, as well as mapping protein domains involved in cellular growth in a given context.

A375-NRAS^Q61K [4] = assay: as above; type: cell-based, human; details: peptide overexpression
From the text: as §4, §6, §7

[5] = test system: MYC transcriptional program (ODONNEL_TARGET_OF_MYC_and_TFRC); assay: RNA-sequencing GSEA of A375 expressing MYC_384 versus GFP_147; type: cell-based, human; details: 5 days post-transduction
Procedure: as §5

MDA-MB-231 = details: cited from earlier work

Substance	A375-WT Fitness Score (A375-WT [1])	A375-NRAS Fitness Score (A375-NRAS^Q61K [2])	further results
ELF4_39: 40-mer peptide tile of ELF4, AA start position 228, ETS domain	−2.44	−1.35	
EP300_99: 40-mer peptide tile of EP300, AA start position 588, KIX domain	−3.20	0.86	
FER_38: 40-mer peptide tile of FER, AA start position 222, F-BAR domain (LKGIFDEYSQITSLVTEEIVNVHKEIQMSVEQIDPSTEYN; UniProt P16591 222-261, looked up, fragment)	−2.21	−1.48	
FLCN_43: 40-mer peptide tile of FLCN, AA start position 252, Longin domain (ACLHTSFAWLLKACGSRLTEKLLEGAPTEDTLVQMEKLAD; UniProt Q8NFG4 252-291, looked up, fragment)	−1.76	−1.99	
FZD3_55: 40-mer peptide tile of FZD3, AA start position 324, Transmembrane domain (IEKKALLFHASAWGIPGTLTIILLAMNKIEGDNISGVCFV; UniProt Q9NPG1 324-363, looked up, fragment)	−3.21	−3.27	
KIT_84: 40-mer peptide tile of KIT, AA start position 498, Transmembrane domain (GKTSAYFNFAFKGNNKEQIHPHTLFTPLLIGFVIVAGMMC; UniProt P10721 498-537, looked up, fragment)	−3.23	−0.77	cell growth compared to GFP_147 (A375-WT [3]): decreases cell growth; cell growth compared to GFP_147 (A375-NRAS^Q61K [4]): much less affected
MAD1L1_78: 40-mer peptide tile of MAD1L1, AA start position 462, Coiled Coil domain (ELGGQKQRADMLEMELKMLKSQSSSAEQSFLFSREEADTL; UniProt Q9Y6D9 462-501, looked up, fragment)	−4.42	−3.52	
MTOR_42: 40-mer peptide tile of MTOR, AA start position 246, HEAT domain	−3.36	1.01	Fitness score (A375-WT [1]; PanCancer Peptide Table (Table 3), lentivirally expressed 40-mer peptide tile, negative = depleted): −3.37
MYC_65: 40-mer peptide tile of MYC, AA start position 384, bHLH domain (ELKRSFFALRDQIPELENNEKAPKVVILKKATAYILSVQA; UniProt P01106 384-423, looked up, fragment)	−2.50	−0.47	cell growth compared to GFP_147 (A375-WT [3]; listed as MYC_384): cell growth defect; also recorded: decreases cell growth; GSEA of MYC transcriptional program [5]: downregulation of their respective transcriptional programs; hit in previous screen (MDA-MB-231): identified and validated; cell growth compared to GFP_147 (A375-NRAS^Q61K [4]): not affected
PIK3CA_38: 40-mer peptide tile of PIK3CA, AA start position 222, RBD (AEAIRKKTRSMLLSSEQLKLCVLEYQGKYILKVCGCDEYF; UniProt P42336 222-261, looked up, fragment)	−2.72	−0.85	
RAF1_14: 40-mer peptide tile of RAF1, AA start position 78, RBD (LHDCLMKALKVRGLQPECCAVFRLLHEHKGKKARLDWNTD; UniProt P04049 78-117, looked up, fragment)	−1.79	−0.50	cell growth compared to GFP_147 (A375-WT [3]): decreases cell growth; hit in previous screen (MDA-MB-231): identified and validated; cell growth compared to GFP_147 (A375-NRAS^Q61K [4]): much less affected
SMARCA4_257: 40-mer peptide tile of SMARCA4, AA start position 1536, Bromodomain (AQTFNLEGSLIYEDSIVLQSVFTSVRQKIEKEDDSEGEES; UniProt P51532 1536-1575, looked up, fragment)	−4.98	−0.54	
SMC3_124: 40-mer peptide tile of SMC3, AA start position 738, Coiled Coil domain (EMKMLKEKRQQSEKTFMPKQRSLQSLEASLHAMESTRESL; UniProt Q9UQE7 738-777, looked up, fragment)	−3.08	0.13	Fitness score (A375-WT [1]; PanCancer Peptide Table, 40-mer peptide tile expressed from lentiviral library): −3.09
SOS1_21: 40-mer peptide tile of SOS1, AA start position 120, HF domain	−2.56	−0.81	cell growth compared to GFP_147 (A375-WT [3]): decreases cell growth; cell growth compared to GFP_147 (A375-NRAS^Q61K [4]): not affected
SUZ12_23: 40-mer peptide tile of SUZ12, AA start position 132, WDB1 domain (FKVDDMLSKVEKMKGEQESHSLSAHLQLTFTGFFHKNDKP; UniProt Q15022 132-171, looked up, fragment)	−2.12	−0.27	

Reference: patent US20260285924A1, “PEPTIDE THERAPEUTICS” (priority 2023, published 2026)
